Calls of active or inactive are those of the source. The calls are words filed in the database; no cut-off is given here.
Key:
[1] = molecular target: T1, Protein deacetylase HDAC6 (Homo sapiens, UniProt Q9UBN7); experiment: Inhibition of human recombinant HDAC6 expressed in baculovirus infected insect High5 cells using Boc-Lys(epsilon-acetyl)-AMC as substrate by fluorescence assay
T1 sequence (Q9UBN7 whole entry): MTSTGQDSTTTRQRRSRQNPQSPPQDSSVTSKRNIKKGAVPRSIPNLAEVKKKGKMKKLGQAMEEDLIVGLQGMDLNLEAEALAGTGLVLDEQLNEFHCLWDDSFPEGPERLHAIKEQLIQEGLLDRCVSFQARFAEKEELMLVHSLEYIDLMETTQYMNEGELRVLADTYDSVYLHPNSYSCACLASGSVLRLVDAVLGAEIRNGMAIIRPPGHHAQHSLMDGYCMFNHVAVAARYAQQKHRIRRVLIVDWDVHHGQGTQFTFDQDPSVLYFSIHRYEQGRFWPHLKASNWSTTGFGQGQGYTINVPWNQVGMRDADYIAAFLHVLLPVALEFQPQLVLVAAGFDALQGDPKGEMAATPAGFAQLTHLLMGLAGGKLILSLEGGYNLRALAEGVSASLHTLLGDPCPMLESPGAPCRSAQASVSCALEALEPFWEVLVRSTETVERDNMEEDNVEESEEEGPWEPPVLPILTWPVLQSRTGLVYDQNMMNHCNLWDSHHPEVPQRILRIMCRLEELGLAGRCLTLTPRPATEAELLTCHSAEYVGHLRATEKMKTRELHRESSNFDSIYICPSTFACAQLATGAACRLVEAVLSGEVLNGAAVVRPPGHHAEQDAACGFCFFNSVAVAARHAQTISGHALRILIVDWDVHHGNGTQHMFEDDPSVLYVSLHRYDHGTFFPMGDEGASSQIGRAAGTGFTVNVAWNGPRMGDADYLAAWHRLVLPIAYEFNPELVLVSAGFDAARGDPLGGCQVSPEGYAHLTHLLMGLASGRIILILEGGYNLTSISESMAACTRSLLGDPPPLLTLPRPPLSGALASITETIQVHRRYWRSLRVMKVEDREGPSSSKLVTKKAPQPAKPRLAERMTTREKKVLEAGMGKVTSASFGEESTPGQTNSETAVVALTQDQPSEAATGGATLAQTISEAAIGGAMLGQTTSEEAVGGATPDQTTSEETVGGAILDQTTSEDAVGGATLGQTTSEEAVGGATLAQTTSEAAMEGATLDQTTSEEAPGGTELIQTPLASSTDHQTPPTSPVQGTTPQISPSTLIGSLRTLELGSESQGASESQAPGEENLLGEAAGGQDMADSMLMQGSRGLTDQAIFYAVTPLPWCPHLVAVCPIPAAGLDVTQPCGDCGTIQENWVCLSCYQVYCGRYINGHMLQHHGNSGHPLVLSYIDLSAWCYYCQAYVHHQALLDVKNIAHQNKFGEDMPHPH

Histone deacetylase 1 [2] = molecular target: T2, Histone deacetylase 1 (Homo sapiens, UniProt Q13547); experiment: Inhibition of human recombinant HDAC1 expressed in baculovirus infected insect High5 cells using Ac-Lys-Tyr-Lys(epsilon-acetyl)-AMC as substrate at 20 ug/ml by fluorescence assay
Histone deacetylase 3 [3] = molecular target: T3, Histone deacetylase 3 (Homo sapiens, UniProt O15379); experiment: Inhibition of human recombinant HDAC3 expressed in baculovirus infected insect High5 cells using Ac-Lys-Tyr-Lys(epsilon-acetyl)-AMC as substrate at 20 ug/ml by fluorescence assay
HCT-116 = experiment: Cytotoxicity against human HCT116 cells after 24 hrs by MTT assay; type: functional, cell-based; conditions: HCT-116, 24 h
[4] = molecular target: T4, Protein deacetylase HDAC6 (Homo sapiens) (UniProt Q9UBN7); experiment: Inhibition of human recombinant HDAC6 expressed in baculovirus infected insect High5 cells using Boc-Lys(epsilon-acetyl)-AMC as substrate at 20 ug/ml by fluorescence assay
T4 sequence (whole entry): T1 sequence (Q9UBN7 whole entry)

Histone deacetylase 3 [5] = molecular target: T3, Histone deacetylase 3; experiment: Inhibition of human recombinant HDAC3 expressed in baculovirus infected insect High5 cells using Ac-Lys-Tyr-Lys(epsilon-acetyl)-AMC as substrate by fluorescence assay
Histone deacetylase 1 [6] = molecular target: T2, Histone deacetylase 1; experiment: Inhibition of human recombinant HDAC1 expressed in baculovirus infected insect High5 cells using Ac-Lys-Tyr-Lys(epsilon-acetyl)-AMC as substrate by fluorescence assay

T3 sequence (O15379 whole entry): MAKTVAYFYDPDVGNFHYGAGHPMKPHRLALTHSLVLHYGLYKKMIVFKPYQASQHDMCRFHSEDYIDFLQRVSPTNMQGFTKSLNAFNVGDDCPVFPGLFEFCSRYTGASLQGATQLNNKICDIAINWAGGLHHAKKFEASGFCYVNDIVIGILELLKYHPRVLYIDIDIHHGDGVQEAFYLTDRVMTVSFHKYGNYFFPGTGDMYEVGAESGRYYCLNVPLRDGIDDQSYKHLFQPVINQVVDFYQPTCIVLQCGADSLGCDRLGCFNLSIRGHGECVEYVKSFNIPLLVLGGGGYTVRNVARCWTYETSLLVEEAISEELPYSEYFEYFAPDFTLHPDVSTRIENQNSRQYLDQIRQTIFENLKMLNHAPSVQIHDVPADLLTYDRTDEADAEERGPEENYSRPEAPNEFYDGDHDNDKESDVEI
T2 sequence (Q13547 whole entry): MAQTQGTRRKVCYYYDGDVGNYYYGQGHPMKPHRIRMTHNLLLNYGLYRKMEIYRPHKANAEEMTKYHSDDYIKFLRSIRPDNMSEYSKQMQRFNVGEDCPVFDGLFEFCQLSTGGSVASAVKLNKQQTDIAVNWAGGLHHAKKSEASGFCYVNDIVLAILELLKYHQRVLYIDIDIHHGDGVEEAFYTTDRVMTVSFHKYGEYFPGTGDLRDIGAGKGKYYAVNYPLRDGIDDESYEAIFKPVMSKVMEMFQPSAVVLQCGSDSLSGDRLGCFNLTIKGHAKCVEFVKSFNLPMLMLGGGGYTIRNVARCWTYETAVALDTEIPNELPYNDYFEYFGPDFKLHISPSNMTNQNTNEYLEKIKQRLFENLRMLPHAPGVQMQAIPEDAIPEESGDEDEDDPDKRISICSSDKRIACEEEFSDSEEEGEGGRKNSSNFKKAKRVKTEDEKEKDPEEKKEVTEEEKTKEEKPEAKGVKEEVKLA

Row | SMILES | IC50 [1] [µM] | inhibition (Histone deacetylase 1 [2]) | inhibition (Histone deacetylase 3 [3]) | IC50 (HCT-116) [µM] | inhibition [4] [%] | IC50 (Histone deacetylase 3 [5]) [µM] | IC50 (Histone deacetylase 1 [6]) [µM]
1 | O=C(/C=C/C=C/c1ccc2c(c1)OCO2)NO | 30.4 | inactive | inactive | 9.1 |  |  | 
2 | CC(C)CNC(=O)/C=C/C=C/CC/C=C/c1ccc2c(c1)OCO2 [RETROFRACTAMIDE A] |  | < 50% | < 50% | > 20 | < 50 |  | 
3 | O=C(O)/C=C/C=C/CCCCc1ccc2c(c1)OCO2 |  | < 50% | < 50% | > 20 | < 50 |  | 
4 | O=C(O)/C=C/C=C/CC/C=C/c1ccc2c(c1)OCO2 |  | < 50% | < 50% | > 20 | < 50 |  | 
5 | O=C(/C=C/C=C/CC/C=C/c1ccc2c(c1)OCO2)NO | 0.73 |  |  | 4.4 |  | 0.76 | 0.73
6 | O=C(/C=C/C=C/CCCCc1ccc2c(c1)OCO2)NO | 2.25 |  |  | 3.5 |  | 1.52 | 1.61
7 | CC(C)CNC(=O)/C=C/C=C/c1ccc2c(c1)OCO2 [PIPERLONGUMININE] |  | inactive | inactive | > 20 | < 50 |  | 
8 | O=C(O)/C=C/C=C/c1ccc2c(c1)OCO2 [PIPERIC ACID] |  | inactive | inactive | > 20 | < 50 |  | 
